Source: a melting point compilation (Tetko et al.; mined from patent text by program, amines drawn as free bases though some values may be those of a salt)

Structure (SMILES) | melting point [°C]
COc1ccc(C2CNC(=O)C2)cc1OCCC(C)N1CCN(c2ccccc2)CC1 (stereo not given) | 88 to 90
FC(F)(F)COc1nc(NCc2ccc(C(F)(F)F)cc2)nc(Nc2ccc3cc[nH]c3c2)n1 | 119 to 121
CC(C)(C)OC(=O)N[C@@]1(C(=O)OC(C)(C)C)CC(=O)[C@H]2[C@H](C(=O)OC(C)(C)C)[C@H]21 | 144 to 146
CN1CCN(CCCNc2ccccc2N)CC1 | 65 to 67
COc1ccc(-c2ccc(Cl)cc2)c(COc2ccc(-c3nc4cc(C(=O)O)ccc4n3C3CCCCC3)cc2)c1 | 248 to 249
Cc1nnc2n1-c1ccc(NC(=O)NCCO)cc1C(c1ccccc1F)=NC2 | 228 to 230
CCOC(=O)c1nn(-c2ccc(N=[N+]=[N-])cc2)c(=O)c2c(N)scc12 | 169 to 170
CCc1cccc2[nH]c(=O)oc(=O)c12 | 202 to 204
CCCCOc1ccc(S(C)(=O)=O)cc1-c1nc2c(CC)n(C3CN(C(C)C)C3)nc2c(=O)[nH]1 | 209 to 213
O=[N+]([O-])c1ccc2c(c1)CN[C@H](CO)C2 | 184
COC(=O)C=Cc1cc(-c2nn(C)c(C(F)(F)F)c2Cl)c(F)cc1Cl | 117
COc1cc2c(cc1OC)C(c1ccccc1)N(C(=O)NCCN1CCCCC1)CC2 (stereo not given) | 101 to 102
CCCc1ccc(CCCCCCCC(=O)O)cc1 | 42 to 43
CCO[C@@H]1C[C@@H](C(=O)NC)N(S(=O)(=O)c2ccc(Cl)c(CBr)c2Cl)C1 | 122
Fc1cc(F)c2c(c1)CC(n1c(-c3nnn[nH]3)c[nH]c1=S)CC2 (stereo not given) | 214 to 215
CC1(CN(c2ccc(Cl)cc2)S(C)(=O)=O)OCCO1 | 84 to 85
COc1cc(C)c(C(=O)c2c(C(F)(F)F)cc(Cl)nc2Cl)c(OC)c1OC | 81 to 83
CC(C)(O)C(=O)c1ccc(C(O)c2ccc(C(=O)C3(O)CCCCC3)cc2)cc1 (stereo not given) | 115 to 118
C#CCCc1c(C)c(OC)c(C)c(C)c1OC | 54
CCCCCS(=O)(=O)NC(=O)/C=C/c1ccc(OCCOC)cc1Oc1ncc([N+](=O)[O-])cc1C | 148 to 150
CCOC(=O)c1cn(C2COC2)c2c(F)c(F)c(F)cc2c1=O | 146 to 147
COc1cc2ncnc(N3CCN(C(=O)Nc4ccc(-n5cccc5)nc4)CC3)c2cc1OC | 252 to 254
COc1ccc(C(NC(C)=O)C(=O)c2ccc(Cl)cc2)cc1 (stereo not given) | 140
NCc1cc(CN)cc(CN)c1 | 49 to 51

Structure (SMILES) | melting point [°C]
COc1ccc(CCn2ccc3ccc(-c4cccc(C(=O)NCCC#N)c4)nc32)cc1OC | 138 to 139
Nc1ncc(-c2ccc(F)c(Cl)c2)nc1C(=O)Nc1cccnc1 | 236 to 238
CC(=O)c1c(C)c2cnc(Nc3ccc(N4CCNCC4)nc3)nc2n(C2CCCC2)c1=O | 125
Cc1cccc(C)c1NCC(N)=O | 89 to 92
CS(=O)(=O)NCCCc1c[nH]c(-c2ccc(F)cc2)c1-c1ccncc1 | 210 to 214
NC(=O)c1nc2cc(F)c([N+](=O)[O-])cc2[nH]c1=O | > 300
CC(C)(C)c1cc(C=Cc2ccccc2NC(=O)NCc2ccccn2)cc(C(C)(C)C)c1O | 207 to 210
Cn1nnnc1NCC(O)CCOc1cccc(CN2CCCCC2)c1 (stereo not given) | 138 to 139
CCc1cc(N)ccc1N1C(=O)c2ccc(Cl)cc2C1=O | 118 to 120
Cc1cc(C(O)(C(F)(F)F)C(F)(F)F)cc(C)c1NCCC#N | 111 to 114
CC(C)N(Cc1ccc(COc2cccc3c2CN(C2CCC(=O)NC2=O)C3=O)cc1)C(C)C (stereo not given) | 201 to 203
CCC(=O)C1c2cccc(O)c2C(=O)c2c(OC(C)=O)cccc21 (stereo not given) | 106
COCON1C(=O)C(=C/c2ccccc2)/C(=C\c2cc(OC)c(OC)c(OC)c2)C1=O | 175 to 177
CN1C(=O)CC[C@]2(C)c3ccc(-c4ccc5c(c4)OCCO5)cc3CC[C@@H]12 | 183 to 189
CCn1c(C(O)(C2CCCCC2)C2CCCCC2)nc(-c2ccncc2)c1-c1ccc(Cl)cc1 | 221 to 224
CCCCCCCc1ccc(C(=O)Nc2ccc3oc(Nc4ccc(CC)cc4)nc3c2)cc1 | 245 to 246
CCOC(=O)C(Cc1ccc(O)cc1)C(=O)OCC | 45
CC12CC(c3ccc(OS(=O)(=O)C(F)(F)F)cc3)C3C4CCC5(CC4=CCC3C1CCC2=O)OCCO5 (stereo not given) | 208 to 210
C#CCN(C(=O)c1cc(C)oc1C(F)(F)F)S(=O)(=O)c1cccc(Cl)c1 | 70 to 72
CCCCCCCCCCCCCCCCCC(=O)OC1CC(C)(C)N(OC2CCCCC2)C(C)(C)C1 | 44 to 47
O=C1CCCc2ccc([N+](=O)[O-])cc21 | 104 to 105
Cc1c(NC(=O)c2ccc(-c3ccc(F)cc3)cc2)ccc2cc(CN3CCC(CCCC(=O)N4CCCCC4)CC3)cnc12 | 154 to 156
COC(=O)c1sccc1S(=O)(=O)NC(=O)Nc1nc(C)cc(C)n1 | 191 to 193
COC(=O)CCCc1cc2cc(Cl)ccc2n1S(=O)(=O)c1ccc2nc(C)oc2c1 | 100 to 110

Further lines, results first:

melting point [°C] | Structure (SMILES)
165 to 175 | COc1ccc2nn(C=Cc3ccc(-c4ccccc4)cc3)nc2c1
125 to 127 | C#CC1(Oc2ccc(F)cc2N)CCN(C(=O)Oc2ccccc2)CC1
200 to 203 | N#Cc1ccc(C(=O)OCc2ccc[nH]c2=O)cc1
176 to 179 | CC(C(=O)O)c1ccc2c(-c3ccc(Cl)cc3)noc2c1 (stereo not given)
56 to 60 | CCCCC1CCc2ccc(OCc3ccccn3)cc2C1=O (stereo not given)
225 to 227 | Nc1cc(=O)nc(Nc2ccc(F)cc2)n1-c1ccccc1
228 to 230 | O=c1ccn(CCO)c(Cc2ccccc2)c1O
112 | CSc1ccc(-c2cn3c(c2-c2ccccc2)CCC3)cc1
98 to 100 | CCOC(=O)N1Cc2ccccc2C(Oc2cccc(C(F)(F)F)c2)C1 (stereo not given)
117 to 119 | CC(=O)c1cccc(Oc2ncccc2OCCCc2ccncc2)c1
116 to 118 | CC(C#N)(c1ccccc1)c1ccc(Cl)nn1 (stereo not given)
176 | CP(C)(=O)COC(=O)c1ccccc1Nc1ccnc2c(C(F)(F)F)cccc12
126 to 129 | CC(=NC(=Nc1ccccc1)N1CCOCC1)NCc1ccccc1
155 to 157 | COc1ccc2c(c1)c(CC(N)=O)c(C)n2Cc1ccc(OCc2ccccc2)cc1
152 to 155 | CCOC(C)O[C@H]1C(=O)N(C(=O)Nc2ccccc2)[C@H]1c1ccccc1 (stereo not given in full)
160 to 161 | CCOP(=O)(Cc1ccc(NC(=O)C(Cc2ccccc2)C(=O)O)cc1)OCC (stereo not given)
101 to 103 | CC(=O)C(=NNc1ccccc1)C(=O)NCc1ccccc1
230 to 233 | COc1cc(-c2cn3cccnc3n2)ccc1O
206 to 208 | COc1cc([N+](=O)[O-])c2nccc(C)c2c1Oc1cccc(C(F)(F)F)c1
82 | CCOC(=O)c1cccc(C=Cc2ccccc2)c1
114 | CC(C)(C)OC(=O)CN(C(=O)CNC(=O)c1ccc2ccccc2n1)c1ccccc1
98 to 117 | Nc1ccc(C(=O)N2Cc3ccnn3Cc3ccccc32)c(Cl)c1
